Where two headings read alike, the source gives them in different places.
Tests used:
C. perfringens spores [1] = experiment: microbe, parasite or virus in culture; details: Clostridium perfringens, read-out: IC50, inhibition of C. perfringens spore germination
C. perfringens spores [2] = format: cell-based, Clostridium perfringens; details: for induction of spore germination by bile salt in the presence of amino acids: BA pathway; for triggering of spore germination by detergent: even in the presence of excess L-alanine
C. perfringens spores [3] = format: cell-based, Clostridium perfringens; details: for effect of added salt on AA pathway response / effect of added salt on BA germination pathway: potassium phosphate or sodium phosphate buffer; for effect of added salt on AA pathway response / effect of added salt on BA pathway / effect of added salt on BA germination pathway: 150 mM salt; for effect of added salt on BA pathway: spores resuspended in sodium phosphate buffer
C. perfringens spores [4] = details: with L-alanine, in place of L-phenylalanine
C. perfringens spores [5] = details: spore germination inhibition
C. perfringens strains = format: cell-based, Clostridium perfringens
[6] = in the presence of theobromine, strains 1936, 1473, 1882

CSc1nc2ccccc2s1 [2-MTB, 2-methylthiobenzothiazole]
IC50 (C. perfringens spores [1]): 74 µM

C[C@H](CCC(=O)O)[C@H]1CC[C@H]2[C@@H]3[C@H](O)C[C@@H]4C[C@H](O)CC[C@]4(C)[C@H]3C[C@H](O)[C@]12C [Cholate]
induction or inhibition of spore germination in the presence of L-alanine (C. perfringens spores [2]): did not induce or inhibit

C[C@H](CCC(=O)NCC(=O)O)[C@H]1CC[C@H]2[C@@H]3[C@H](O)C[C@@H]4C[C@H](O)CC[C@]4(C)[C@H]3C[C@H](O)[C@]12C [Glycocholate]
induction of spore germination by bile salt in the presence of amino acids (C. perfringens spores [2]): induced C. perfringens spore germination

[Br-].[K+] [KBr]
effect of added salt on AA pathway response (C. perfringens spores [3]): did not affect
effect of added salt on BA pathway (C. perfringens spores [3]): induced the BA pathway

[Cl-].[K+] [KCl]
effect of added salt on AA pathway response (C. perfringens spores [3]): did not affect
effect of added salt on BA pathway (C. perfringens spores [3]): induced the BA pathway

N[C@@H](Cc1ccc(O)cc1)C(=O)O [L-tyrosine]
germination rate slower than with L-phenylalanine (C. perfringens spores [4]): more than 50%

COc1nc2ccccc2s1 [MOB, 2-methoxy benzothiazole]
inhibitory concentration compared with other analogs (C. perfringens spores [5]): approximately ten times lower than other analogs
IC50 (C. perfringens spores [1]): 98 µM

[Br-].[Na+] [NaBr]
effect of added salt on AA pathway response (C. perfringens spores [3]): did not affect
effect of added salt on BA germination pathway (C. perfringens spores [3]): did not affect

[Cl-].[Na+] [NaCl]
effect of added salt on AA pathway response (C. perfringens spores [3]): did not affect
effect of added salt on BA germination pathway (C. perfringens spores [3]): did not affect

CCCCCCCCCCCCOS(=O)(=O)[O-].[Na+] [SDS]
triggering of spore germination by detergent (C. perfringens spores [2]): Neither detergent was able to trigger

C[C@H](CCC(=O)O)[C@H]1CC[C@H]2[C@@H]3[C@H](O)C[C@@H]4C[C@H](O)CC[C@]4(C)[C@H]3CC[C@]12C [chenodeoxycholate]
induction or inhibition of spore germination in the presence of L-alanine (C. perfringens spores [2]; FIG. 3B): did not induce or inhibit

O=C([O-])O.[K+] [potassium bicarbonate]
effect of added bicarbonate on germination rate (C. perfringens spores [3]): increased germination rate

OC[C@H]1O[C@H](OC[C@H]2O[C@H](O[C@]3(CO)O[C@H](CO)[C@@H](O)[C@@H]3O)[C@H](O)[C@@H](O)[C@@H]2O)[C@H](O)[C@@H](O)[C@H]1O [raffinose]
sporulation with the carbon source (C. perfringens strains; 0.5% carbon source in solid medium): preferred carbon source

O=C([O-])O.[Na+] [sodium bicarbonate]
effect of added bicarbonate on germination rate (C. perfringens spores [3]): increased germination rate

C[C@H](CCC(=O)NCCS(=O)(=O)O)[C@H]1CC[C@H]2[C@@H]3[C@H](O)C[C@@H]4C[C@H](O)CC[C@]4(C)[C@H]3CC[C@]12C [taurochenodeoxycholate]
induction of spore germination by bile salt in the presence of amino acids (C. perfringens spores [2]): induced C. perfringens spore germination

C[C@H](CCC(=O)NCCS(=O)(=O)O)[C@H]1CC[C@H]2[C@@H]3CC[C@@H]4C[C@H](O)CC[C@]4(C)[C@H]3C[C@H](O)[C@]12C [taurodeoxycholate]
induction of spore germination by bile salt in the presence of amino acids (C. perfringens spores [2]): induced C. perfringens spore germination

Cn1cnc2c1c(=O)[nH]c(=O)n2C [theobromine]
time at which spores could be detected (C. perfringens strains; [6]): two days after plating
time of maximum sporulation levels (C. perfringens strains; [6]): 5-7 days post-plating
effect of theobromine on sporulation level (C. perfringens strains; strain 1473): decreased
Theobromine, effect on sporulation (C. perfringens strains; strain 1473, inoculum BHI, peptone #3): Increases sporulation
Theobromine, effect on sporulation (C. perfringens strains; strain 1473, inoculum Thioglycollate, peptone #1): Reduces sporulation
Theobromine, effect on sporulation (C. perfringens strains; strain 1521, inoculum Thioglycollate, peptone #1): Required for sporulation
effect of theobromine on sporulation level (C. perfringens strains; strain 1882): increased
Theobromine, effect on sporulation (C. perfringens strains; strain 1882, inoculum BHI, peptone #2): Increases sporulation
effect of theobromine on sporulation level (C. perfringens strains; strain 1936): remained unchanged
Theobromine, effect on sporulation (C. perfringens strains; strain 1936, inoculum BHI, peptone #1): No effect on sporulation
Theobromine, effect on sporulation (C. perfringens strains; strain 4064, inoculum BHI, peptone #1): Required for sporulation
Theobromine, effect on sporulation (C. perfringens strains; strain 4104, inoculum BHI, peptone #3): Required for sporulation
Theobromine, effect on sporulation (C. perfringens strains; strain 4104, inoculum Thioglycollate, peptone #3): Required for sporulation
Theobromine, effect on sporulation (C. perfringens strains; strain 4121, inoculum Thioglycollate, peptone #2): Required for sporulation
effect on sporulation times (C. perfringens strains; strains 1936, 1473, 1882): reduced sporulation times
effect of theobromine on sporulation (C. perfringens strains; strains 4104, 4064, 1521, 4121, solid media): only sporulated robustly when theobromine was added

Triton-X-100
triggering of spore germination by detergent (C. perfringens spores [2]): Neither detergent was able to trigger

deoxycholate
induction or inhibition of spore germination in the presence of L-alanine (C. perfringens spores [2]; FIG. 3B): did not induce or inhibit

Reference: patent US12144800B2 (priority 2015, dated 2024)
